We go through one molecule from patent US20230277831A1, “Focused Ultrasound Device” (Washington University, priority 2022, published 2023).

The nature of the data set: Evans blue delivery after FUS-BBBO, fluorescence imaging of brain sections. The following applies: mouse brain. It is filed as in vivo, mice (C57BL/6). On the procedure: Following the FUS-BBBO treatment as described in Example 3, the brains of the mice were harvested and harvested sections were fluorescence imaged using an LI-COR imaging system (Pearl Trilogy; 700 Channel laser source (Ex 785 nm/Em 820 nm); resolution 85 μm). Enhanced fluorescence signals associated with the delivery of Evans blue through the FUS-disrupted BBB were determined by comparing sections from FUS-BBBO and corresponding untreated brain halves.
Evans Blue has been commonly used as a model drug for evaluating the FUS-BBBO drug delivery outcome. The harvested mouse brains were cut into 1-mm thick coronal sections using the mouse brain matrix (World Precision Instrument, Sarasota, Fla., USA). Fluorescence images of brain sections were taken using a LI-COR imaging system (Pearl Trilogy; 700 Channel laser source (Ex 785 nm/Em 820 nm); resolution 85 μm) and analyzed using Matlab (Mathworks, Natick, Mass., USA). […] Pixels with intensities above the background autofluorescence intensity were identified for each brain section. Evans blue delivery volume was calculated by the total number of pixels with enhanced fluorescence signal in all the brain sections. The mean fluorescence intensity of pixels with enhanced fluorescence signal in all the brain sections was calculated to represent the signal intensity of the delivered Evans blue.

On to `Cc1cc(-c2ccc(/N=N/c3ccc4c(S(=O)(=O)O)cc(S(=O)(=O)O)c(N)c4c3O)c(C)c2)ccc1/N=N/c1ccc2c(S(=O)(=O)O)cc(S(=O)(=O)O)c(N)c2c1O` [Evans Blue], for which the “Evans Blue extravasation” value was “observed” (FUS at 0.4 MPa and 0.57 MPa for all frequencies (1.5, 3.0, 6.0 MHz) and 0.2 MPa for 1.5 MHz); “not detectable” (FUS at 3.0 MHz and 6.0 MHz at 0.2 MPa). For the same molecule, the “Evans Blue delivery volume” value was 69±3.8 mm^3 (i.v., FUS-BBBO at 1.5 MHz, 0.57 MPa (largest BBB opening volume), mean±SD) and 8.9±1.3 mm^3 (i.v., FUS-BBBO at 6 MHz, 0.4 MPa (smallest BBB opening volume), mean±SD). The “Evans Blue signal intensity” value (i.v., FUS-BBBO at 1.5 MHz, 0.57 MPa, mean fluorescence intensity, mean±SD) came out at 47±8.2.
